Results published in patent publication US20100286145A1, “ISOPHTHALAMIDE DERIVATIVES INHIBITING BETA-SECRETASE ACTIVITY” (CoMentis, Inc., priority 2007, published 2010).
pIC50, pKi: −log10 of the molar value. Where two headings read alike, the source gives them in different places.

Key:
[1] = test system: Aβ production in Chinese hamster ovary cells that over-express human APP695 with the London and Swedish mutations; test: Cellular Aβ IC50 determination (Aβ40 sandwich ELISA); assay type: cell-based; conditions: Cricetulus griseus; cellular Aβ production; read-out: IC50
Procedure, shortened: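 Aβ40 in media quantified by sandwich ELISA, normalized to control incubations and fitted with a 4-parameter IC50 model. Compounds dosed to a final concentration near 4 μM (0.4% DMSO) on CHO cells expressing human APP695 (London and Swedish mutants) seeded at 10% confluency.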

memapsin 2 = memapsin 2 (Homo sapiens, UniProt P56817); test: Inhibition of memapsin 2 beta-secretase activity (fluorogenic substrate FS-2); assay type: biochemical; conditions: memapsin 2, pH 4, 37° C., read-out: M2Ki
Procedure, shortened: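 Kinetic fluorogenic assay: hydrolysis of the MCA/DNP-labelled APP Swedish-variant peptide FS-2 monitored as fluorescence rise at 37° C, pH 4, after 20 min enzyme–compound preincubation. Relative rates fitted with a tight-binding inhibitor model.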

Sequence of memapsin 2 (P56817 46-501): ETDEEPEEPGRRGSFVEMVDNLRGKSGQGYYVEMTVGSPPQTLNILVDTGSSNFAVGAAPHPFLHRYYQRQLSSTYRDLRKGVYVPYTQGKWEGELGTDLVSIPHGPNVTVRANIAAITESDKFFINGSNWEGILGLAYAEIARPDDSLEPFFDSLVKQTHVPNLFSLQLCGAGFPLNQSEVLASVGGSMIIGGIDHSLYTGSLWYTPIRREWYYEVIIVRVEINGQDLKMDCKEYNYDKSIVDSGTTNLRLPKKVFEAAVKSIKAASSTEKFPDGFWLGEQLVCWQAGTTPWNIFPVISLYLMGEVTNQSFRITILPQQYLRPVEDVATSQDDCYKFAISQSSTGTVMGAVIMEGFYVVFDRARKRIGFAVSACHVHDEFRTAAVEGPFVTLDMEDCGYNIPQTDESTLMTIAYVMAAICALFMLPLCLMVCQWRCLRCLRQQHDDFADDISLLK

Row | pIC50 [1] | pKi (memapsin 2; 20 minutes pre-incubation) | pKi (memapsin 2; fluorogenic substrate FS-2) | SMILES
1 | > 6.00 | > 6.52 |  | COC(=O)c1cccc(CNC[C@@H](O)[C@H](Cc2ccccc2)NC(=O)c2cc(C(=O)N[C@H](C)c3ccccc3)cc(N(C)S(C)(=O)=O)c2)c1 [Compound 96, methyl 3-(((2R,3S)-2-hydroxy-3-(3-(N-methylmethylsulfonamido)-5-((R)-1-phenylethylcarbamoyl)benzamido)-4-phenylbutylamino)methyl)benzoate]
2 | > 6.00 | > 6.52 |  | COc1cccc(CNC[C@@H](O)[C@H](Cc2ccccc2)NC(=O)c2cc(C(=O)N(C)Cc3nc(C)cs3)cc(-c3ccccc3C#N)c2)c1 [Compound 140, 2′-cyano-N3-((2S,3R)-3-hydroxy-4-(3-methoxybenzylamino)-1-phenylbutan-2-yl)-N5-methyl-N5-((4-methylthiazol-2-yl)methyl)biphenyl-3,5-dicarboxamide]
3 | 5.30 to 6.00 |  | > 6.52 | COc1cccc(CNC[C@@H](O)[C@H](Cc2ccccc2)NC(=O)c2cc(C(=O)N(C)Cc3nc(C)cs3)cc(N3CCC(O)C3)c2)c1 (stereo partly drawn) [Compound 241, N1-((2S,3R)-3-hydroxy-4-(3-methoxybenzylamino)-1-phenylbutan-2-yl)-5-(3-hydroxypyrrolidin-1-yl)-N3-methyl-N3-((4-methylthiazol-2-yl)methyl)isophthalamide]
4 | > 6.00 | > 6.52 |  | COc1cc(C(=O)N[C@@H](Cc2ccccc2)[C@H](O)CNCc2cccc(C(F)(F)F)c2)cc(C(=O)N(C)Cc2nc(C)cs2)c1 [Compound 31, N1-((2S,3R)-3-hydroxy-1-phenyl-4-(3-(trifluoromethyl)benzylamino)butan-2-yl)-5-methoxy-N3-methyl-N3-((4-methylthiazol-2-yl)methyl)isophthalamide]
5 | > 6.00 | > 6.52 |  | CNc1cc(CNC[C@@H](O)[C@H](Cc2ccccc2)NC(=O)c2cccc(C(=O)N(C)Cc3nc(C)cs3)c2)cc(C(C)C)c1 [Compound 133, N1-((2S,3R)-3-hydroxy-4-(3-isopropyl-5-(methylamino)benzylamino)-1-phenylbutan-2-yl)-N3-methyl-N3-((4-methylthiazol-2-yl)methyl)isophthalamide]
6 | > 6.00 | > 6.52 |  | Cc1csc(CN(C)C(=O)c2cc(C(=O)N[C@@H](Cc3ccccc3)[C@H](O)CNCc3cncc(C(C)C)c3)cc(-c3ccccc3C#N)c2)n1 [Compound 154, 2′-cyano-N3-((2S,3R)-3-hydroxy-4-((5-isopropylpyridin-3-yl)methylamino)-1-phenylbutan-2-yl)-N5-methyl-N5-((4-methylthiazol-2-yl)methyl)biphenyl-3,5-dicarboxamide]
7 | > 6.00 | > 6.52 |  | Cc1csc(CN(C)C(=O)c2cccc(C(=O)N[C@@H](Cc3ccccc3)[C@H](O)CNCc3cccc(C(C)(C)O)c3)c2)n1 [Compound 184, N1-((2S,3R)-3-hydroxy-4-(3-(2-hydroxypropan-2-yl)benzylamino)-1-phenylbutan-2-yl)-N3-methyl-N3-((4-methylthiazol-2-yl)methyl)isophthalamide]
8 | > 6.00 | > 6.52 |  | Cc1csc(CN(C)C(=O)c2cc(OS(C)(=O)=O)cc(C(=O)N[C@@H](Cc3ccccc3)[C@H](O)CNCc3cncc(C(C)C)c3)c2)n1 [Compound 100, 3-((2S,3R)-3-hydroxy-4-((5-isopropylpyridin-3-yl)methylamino)-1-phenylbutan-2-ylcarbamoyl)-5-(methyl((4-methylthiazol-2-yl)methyl)carbamoyl)phenyl methanesulfonate]
9 | > 6.00 | > 6.52 |  | Cc1csc(CN(C)C(=O)c2cccc(C(=O)N[C@@H](Cc3ccccc3)[C@H](O)CNCc3cc(C(C)C)cc(S(C)(=O)=O)c3)c2)n1 [Compound 150, N1-((2S,3R)-3-hydroxy-4-(3-isopropyl-5-(methylsulfonyl)benzylamino)-1-phenylbutan-2-yl)-N3-methyl-N3-((4-methylthiazol-2-yl)methyl)isophthalamide]
10 | > 6.00 |  | > 6.52 | COc1cc(CNC[C@@H](O)[C@H](Cc2ccccc2)NC(=O)c2cccc(C(=O)N(C)Cc3nc(C)cs3)c2)cc([N+](=O)[O-])c1 [Compound 221, N1-((2S,3R)-3-hydroxy-4-(3-methoxy-5-nitrobenzylamino)-1-phenylbutan-2-yl)-N3-methyl-N3-((4-methylthiazol-2-yl)methyl)isophthalamide]
11 | > 6.00 | > 6.52 |  | Cc1csc(CN(C)C(=O)c2cccc(C(=O)N[C@@H](Cc3ccccc3)[C@H](O)CNCc3cc(O)cc(C(C)C)c3)c2)n1 [Compound 125, N1-((2S,3R)-3-hydroxy-4-(3-hydroxy-5-isopropylbenzylamino)-1-phenylbutan-2-yl)-N3-methyl-N3-((4-methylthiazol-2-yl)methyl)isophthalamide]
12 | > 6.00 | > 6.52 |  | CCS(=O)(=O)c1cc(CNC[C@@H](O)[C@H](Cc2ccccc2)NC(=O)c2cccc(C(=O)N(C)Cc3nc(C)cs3)c2)cc(C(C)C)c1 [Compound 188, N1-((2S,3R)-4-(3-(ethylsulfonyl)-5-isopropylbenzylamino)-3-hydroxy-1-phenylbutan-2-yl)-N3-methyl-N3-((4-methylthiazol-2-yl)methyl)isophthalamide]
13 | > 6.00 | > 6.52 |  | Cc1csc(CN(C)C(=O)c2cc(C(=O)N[C@@H](Cc3ccccc3)[C@H](O)CNCc3cc(OS(C)(=O)=O)cc(C(C)C)c3)cc(N(C)C)c2)n1 [Compound 178, 3-(((2R,3S)-3-(3-(dimethylamino)-5-(methyl((4-methylthiazol-2-yl)methyl)carbamoyl)benzamido)-2-hydroxy-4-phenylbutylamino)methyl)-5-isopropylphenyl methanesulfonate]
14 | > 6.00 |  | > 6.52 | Cc1csc(CN(C)C(=O)c2cccc(C(=O)N[C@@H](Cc3ccccc3)[C@H](O)CNCc3cc(O)cc(C(C)(C)C)c3)c2)n1 [Compound 215, N1-((2S,3R)-4-(3-tert-butyl-5-hydroxybenzylamino)-3-hydroxy-1-phenylbutan-2-yl)-N3-methyl-N3-((4-methylthiazol-2-yl)methyl)isophthalamide]
15 | > 6.00 | > 6.52 |  | CC(=O)c1cccc(CNC[C@@H](O)[C@H](Cc2ccccc2)NC(=O)c2cc(C(=O)N[C@H](C)c3ccccc3)cc(N(C)S(C)(=O)=O)c2)c1 [Compound 126, N1-((2S,3R)-4-(3-acetylbenzylamino)-3-hydroxy-1-phenylbutan-2-yl)-5-(N-methylmethylsulfonamido)-N3-((R)-1-phenylethyl)isophthalamide]
16 | > 6.00 | > 6.52 |  | COc1cccc(CNC[C@@H](O)[C@H](Cc2ccccc2)NC(=O)c2cc(OC)cc(C(=O)N(Cc3nc(C)cs3)C(C)C)c2)c1 [Compound 25, N1-((2S,3R)-3-hydroxy-4-(3-methoxybenzylamino)-1-phenylbutan-2-yl)-N3-isopropyl-5-methoxy-N3-((4-methylthiazol-2-yl)methyl)isophthalamide]
17 | > 6.00 | > 6.52 |  | Cc1csc(CN(C)C(=O)c2cccc(C(=O)N[C@@H](Cc3ccccc3)[C@H](O)CNCc3cccc(N(C)C)c3)c2)n1 [Compound 129, N1-((2S,3R)-4-(3-(dimethylamino)benzylamino)-3-hydroxy-1-phenylbutan-2-yl)-N3-methyl-N3-((4-methylthiazol-2-yl)methyl)isophthalamide]
18 | > 6.00 | > 6.52 |  | Cc1csc(CN(C)C(=O)c2cccc(C(=O)N[C@@H](Cc3ccccc3)[C@H](O)CNCc3cncc(N(C)C)c3)c2)n1 [Compound 47, N1-((2S,3R)-4-((5-(dimethylamino)pyridin-3-yl)methylamino)-3-hydroxy-1-phenylbutan-2-yl)-N3-methyl-N3-((4-methylthiazol-2-yl)methyl)isophthalamide]
19 | > 6.00 |  | 6.30 to 6.52 | COc1cccc([C@H](C)NC[C@@H](O)[C@H](Cc2ccccc2)NC(=O)c2cc(C(=O)N(C)Cc3nc(C)cs3)cc(N(C)C)c2)c1 [Compound 260, 5-(dimethylamino)-N1-((2S,3R)-3-hydroxy-4-((S)-1-(3-methoxyphenyl)ethylamino)-1-phenylbutan-2-yl)-N3-methyl-N3-((4-methylthiazol-2-yl)methyl)isophthalamide]
20 | < 5.30 | 6.30 to 6.52 |  | COc1cc(CNC[C@@H](O)[C@H](Cc2ccccc2)NC(=O)c2cccc(C(=O)N(C)Cc3nc(C)cs3)c2)nc(N)n1 [Compound 207, N1-((2S,3R)-4-((2-amino-6-methoxypyrimidin-4-yl)methylamino)-3-hydroxy-1-phenylbutan-2-yl)-N3-methyl-N3-((4-methylthiazol-2-yl)methyl)isophthalamide]
21 | > 6.00 | > 6.52 |  | Cc1csc(CN(C)C(=O)c2cccc(C(=O)N[C@@H](Cc3ccccc3)[C@H](O)CNCc3cccc(C(C)(C)C)c3)c2)n1 [Compound 52, N1-((2S,3R)-4-(3-tert-butylbenzylamino)-3-hydroxy-1-phenylbutan-2-yl)-N3-methyl-N3-((4-methylthiazol-2-yl)methyl)isophthalamide]
22 | > 6.00 |  | > 6.52 | CC(C)c1cncc(CNC[C@@H](O)[C@H](Cc2ccccc2)NC(=O)c2cccc(C(=O)N(C)Cc3nc(CF)cs3)c2)c1 [Compound 278, N1-((4-(fluoromethyl)thiazol-2-yl)methyl)-N3-((2S,3R)-3-hydroxy-4-((5-isopropylpyridin-3-yl)methylamino)-1-phenylbutan-2-yl)-N1-methylisophthalamide]
23 | > 6.00 | < 6.30 |  | Cc1cccc(CNC[C@@H](O)[C@H](Cc2ccccc2)NC(=O)c2cccc(C(=O)N(C)Cc3nc(C)cs3)c2)n1 [Compound 115, N1-((2S,3R)-3-hydroxy-4-((6-methylpyridin-2-yl)methylamino)-1-phenylbutan-2-yl)-N3-methyl-N3-((4-methylthiazol-2-yl)methyl)isophthalamide]
